The subject of data set [1] is NMDA receptors. The data set can be described thus: Chick retina assay: protection against excitotoxic action of NMDA. The class given is cell-based. An excerpt: (§1) Antagonist potencies were established in a chick retina assay which has
(§2) (NMDA, KA and Quis) for excitotoxic properties and EAA antagonists for
(§3) potency in protecting the retina against the excitotoxic action of such
(§4) agonists. The concentration of antagonist required to totally prevent the
(§5) toxic action of an agonist was used to compare antagonists for potency.
(§6) For purposes of illustration, the data were normalized by assigning a
(§7) EAA antagonist properties have been described in each category. Antagonis
(§8) potencies were established in a chick retina assay which has been used by
(§9) Quis) for excitotoxic properties and EAA antagonists for potency in
(§10) protecting the retina against the excitotoxic action of such agonists.
(§11) concentration of antagonist required to totally prevent the toxic action
(§12) of an agonist was used to compare antagonists for potency. For purposes o
(§13) to kynurenic acid vs KA (see table 1) and all other values were adjusted

In data set [2] the test system is cerebral ischemia. To be noted: animal experiments, cerebral ischemia (stroke); cited from earlier work.
The conditions of data set [3]: statement in text, cited from earlier work.
Data set [4] has as its system humans. To be noted: cited from earlier work; for psychotic effects: humans; for serious side effects: interaction with NMDA receptors throughout the brain.
In data set [5] the test system is KA receptors. As to the kind of experiment: Chick retina assay: protection against excitotoxic action of KA. The class given is cell-based. Conditions: Table 1, normalized to kynurenic acid vs KA = 1.
Source text: as §1, §2, §3, §4, §5, §6, §7, §8, §9, §10, §11, §12, §13

Data set [6] concerns Quis receptors. The data set can be described thus: Chick retina assay: protection against excitotoxic action of Quis. The class given is cell-based. To be noted: Table 1, normalized to kynurenic acid vs KA = 1.
Source text: as §1, §2, §3, §4, §5, §6, §7, §8, §9, §10, §11, §12, §13

Data set [7] deals with non-NMDA receptors. As to the kind of experiment: Chick retina assay: blocking non-NMDA receptors. The format is cell-based. To be noted: chick retinas, relative to Kyn.
Data set [8] concerns EAA receptors (NMDA, KA, Quis). To be noted: cited from earlier work.
In data set [9] the test system is dogs. The data set can be described thus: Emesis induction by glutamate in dogs; blockage by D-AP5 or Kyn. The format is in vivo, dog. Conditions: 150 mg/kg IV.
The test system of data set [10] is patients. To be noted: high blood concentrations, humans; cited from earlier work.
For data set [11], the system named is area postrema-CVO neurons. To be noted: cited from earlier work.
Data set [12] deals with dogs. The data set can be described thus: Emesis induction by NMDA in dogs; blockage by D-AP5. The class given is in vivo, dog. To be noted: IV, in the vicinity of 5 mg/kg. As for the experimental part:
Therefore, each dog (all were young adults) was used for more than one experiment. Typically, one or more tests would be done using NMDA to determine an effective dosage for an individual dog. After the dose was established, an experiment was conducted on a subsequent day in which the dog also received 2 mg/kg D-AP5 subcutaneously (SC), along with the NMDA. On the day after that, NMDA was administered alone, to ensure that the emetic response was unchanged and the dog had not developed tolerance or sustained damage to the emesis-mediating reflexes.

The subject of data set [13] is ferrets. Conditions: ferrets treated with cisplatin; cited from earlier work.
Data set [14] relates to cancer patients. To be noted: cited from earlier work.
Data set [15] has as its system 5-HT M receptors. To be noted: cited from earlier work.
For data set [16], the system named is ferrets. As to the kind of experiment: Emesis induction by cisplatin (8 mg/kg IV) in ferrets; blockage by Kyn. The format is in vivo, ferret. To be noted: cisplatin 8 mg/kg IV alone, 4 ferrets, 5 h observation. As to the method:
Four ferrets (a control group) received 8 mg/kg IV cisplatin, a chemotherapeutic drug which has a powerful emetic effect.
Nine ferrets were treated with cisplatin (8 mg/kg IV), and with Kyn, either by bolus (one-shot) injection using 150 mg/kg, or by continuous IV infusion using 50 mg/kg/hour.

Data set [17] has as its system ferrets. The data set can be described thus: Emesis induction by cisplatin (10 mg/kg IV) in ferrets; blockage by D-AP5/CNQX. The format is in vivo, ferret. To be noted: cisplatin 10 mg/kg IV alone, five ferrets, 5 h. As for the experimental part:
Since suitable agents such as D-AP5 are available that can block NMDA receptors without crossing the BBB, a mixture of CNQX and D-AP5 was tested to see whether a mixture of an NMDA antagonist and a non-NMDA antagonist would have anti-emetic properties. The dosage of cisplatin was increased to 10 mg/kg IV, since only 3 out of 4 of the control animals vomited when 8 mg/kg was used as described in Example 4. This increased the stringency of the test.
Five control animals (ferrets) were treated.
Five test animals were treated by cisplatin, 10 mg/kg IV, followed by intravenous infusion of a mixture of 15 mg/kg/hr CNQX and 5 mg/kg/hr D-AP5.

The mark [18] stands for this setting: Table 2, normalized to kynurenic acid vs KA = 1.
Setting [19] is: of 20 cancer patients, no control group.

Like-named read-outs stand apart in the source and are kept apart here.

On to `c1ccc(C2(N3CCCCC3)CCCCC2)cc1` [PCP, phencyclidine], for which the “EAA antagonist potency vs NMDA” value in data set [1] (setting [18]) amounted to 2000. For the same molecule, in [2], the neuroprotective effects result is recorded as “powerful neuroprotective effects”. The “penetration of blood brain barriers” value in data set [3] is reported as “readily penetrate BBB”; in [3] (listed as phencyclidine), “permeate easily through BBB's”. Moreover, in [4], the psychotic effects result is recorded as “psychotic effects”. The serious side effects result in data set [4] is “psychotic disturbances and pathomorphological changes in cerebrocortical neurons”.
With `C[C@]12N[C@H](Cc3ccccc31)c1ccccc12` [MK-801], the “EAA antagonist potency vs NMDA” value in data set [1] (setting [18]) is reported as 5000. Moreover, in data set [2], the neuroprotective effects entry is on record as “powerful neuroprotective effects”. Further, in data set [4], the psychotic effects entry is reported as “psychotic effects”; the serious side effects result was “psychotic disturbances and pathomorphological changes in cerebrocortical neurons”.
Consider `N#Cc1cc2[nH]c(=O)c(=O)[nH]c2cc1[N+](=O)[O-]` [CNQX], for which the “EAA antagonist potency vs NMDA” value in data set [1] (Table 1, normalized to kynurenic acid vs KA = 1) amounted to 5. In addition, the “EAA antagonist potency vs KA” value in [5] amounted to 30. Further, the “EAA antagonist potency vs Quis” value in data set [6] was determined as 67. The “times more powerful than Kyn in blocking non-NMDA receptors” value in [7] is on record as “approximately 30 times”. For the same molecule, in [8], the “block of non-NMDA vs NMDA receptors” value is reported as “block non-NMDA receptors substantially more powerfully than NMDA receptors” and the “potency compared with kynurenic or 7-chloro-kynurenic acid” value is listed as “significantly more powerful”.
Turning to `N[C@@H](CCC(=O)O)C(=O)O` [Glutamate, glutamate], the “emetic response to glutamate” value in data set [9] was “An emetic response was observed in all animals”. For the same molecule, the “penetration of blood brain barriers” value in data set [3] was “does not penetrate the BBB”. Besides, the emetic properties entry in data set [10] is listed as “induce vomiting”. Further, in data set [11] (dogs and monkeys), the “emesis at a toxic dose” value is on record as “first causes the animal to vomit before continued excitatory stimulation destroys the area postrema-CVO neurons”. Further, the neurotoxic effects entry in data set [11] (subcutaneous, immature animals of various species including monkeys, CVO brain regions) was “powerful neurotoxic effects”.
On to `CN[C@H](CC(=O)O)C(=O)O` [NMDA, N-methyl-D-aspartate], for which the “emetic response to NMDA” value in data set [12] is on record as “vomiting can be induced”. Moreover, the “penetration of blood brain barriers” value in data set [3] is “does not penetrate the BBB”.
With `CN1C2CCCC1CC(NC(=O)c1nn(C)c3ccccc13)C2` (centres unmarked) [BRL 43694], the “preventing or reducing the severity of emesis” value in data set [13] is “effective in preventing or reducing the severity of emesis”. In data set [14] (setting [19]), the “patients with both nausea and vomiting (delayed in onset)” value is given as 9 patients; the “patients with mild nausea” value is on record as 4 patients; the “patients with neither nausea nor vomiting” value was 7 patients. In addition, the “cisplatin patients with nausea and vomiting” value in data set [14] (of the 5 patients that received cisplatin) is on record as 4 patients. Besides, the “5-HT M receptor antagonism” value in [15] was “more powerful and selective 5-HT M receptor antagonist than metoclopramide”.
In the case of `N.N.[Cl][Pt][Cl]` [cisplatin], in [16], the malaise after cisplatin result is reported as “All four control animals displayed persistent malaise” and the vomiting after cisplatin result was “One control animal did not vomit, but the other three vomited repeatedly”. For the same molecule, in data set [17], the appearance of illness result is reported as “all appeared ill throughout the observation period”.

Source of the values: patent US5039528A, “EAA antagonists as anti-emetic drugs” (priority 1989, dated 1991).
